From article PMC12751012, “Nanoscale Direct-to-Biology Optimization and Structural Insights into Selective S. aureus TrmD Inhibitors” (Journal of Medicinal Chemistry, 2025)

target: T1, S. aureus TrmD (Staphylococcus aureus, UniProt Q2FZ43); assay: nanoSAR direct-to-biology FP displacement screening of crude triazoles; assay type: binding; settings: crude triazole at 1 μM, assuming full conversion; 500 nM TrmD, 10 nM tracer 4; read-out: % displaced tracer
T1 construct: made in house; host or cells: E. coli BL21
T1 sequence (Q2FZ43 1-245): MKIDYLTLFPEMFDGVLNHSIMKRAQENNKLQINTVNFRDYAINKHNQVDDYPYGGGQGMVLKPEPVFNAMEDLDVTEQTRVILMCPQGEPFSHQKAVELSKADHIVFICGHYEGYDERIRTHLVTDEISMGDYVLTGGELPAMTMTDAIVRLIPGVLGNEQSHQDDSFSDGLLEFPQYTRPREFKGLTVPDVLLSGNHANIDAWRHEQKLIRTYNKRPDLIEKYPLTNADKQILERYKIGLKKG
Summary of the method: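 S. aureus TrmD (500 nM) with tracer 4 (10 nM) in Tris/NaCl/MgCl2/glycerol buffer, pH 7.5, was challenged with unpurified triazoles from in situ CuAAC of alkyne 7 with a 320-member azide library.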

Which inhibition at 1 µM does the source give for COc1ccc(-n2cc(-c3c[nH]c4nc[nH]c(=O)c34)nn2)cc1 [Compound 02H08, O=C1NC=NC=2NC=C(C=3N=NN(c4ccc(OC)cc4)C3)C12] here?
The inhibition at 1 µM was 9%.

Which inhibition at 1 µM does the source give for NCCCn1cc(-c2c[nH]c3nc[nH]c(=O)c23)nn1 [Compound 03E10, O=C1NC=NC=2NC=C(C=3N=NN(C3)CCC[NH3+])C12] here?
The inhibition at 1 µM was 68%.

Which inhibition at 1 µM does the source give for O=c1[nH]cnc2[nH]cc(-c3cn(-c4cc(F)ccc4F)nn3)c12 [Compound 02F10, Fc1c(N2N=NC(C=3C=4C(=O)NC=NC4NC3)=C2)cc(F)cc1] here?
Its inhibition at 1 µM is 15%.

How did the inhibition at 1 µM turn out when CCN(CC)C(=O)Cn1cc(-c2c[nH]c3nc[nH]c(=O)c23)nn1 [Compound 01C10, O=C1NC=NC=2NC=C(C=3N=NN(C3)CC(=O)N(CC)CC)C12] was run?
The inhibition at 1 µM was 25%.

How did the inhibition at 1 µM turn out when CC(C)n1cc(-c2c[nH]c3nc[nH]c(=O)c23)nn1 [Compound 01A05, O=C1NC=NC=2NC=C(C=3N=NN(C3)C(C)C)C12] was run?
Its inhibition at 1 µM is 23%.

Which inhibition at 1 µM does the source give for O=c1[nH]cnc2[nH]cc(-c3cn(Cc4cnc(C(F)(F)F)s4)nn3)c12 [Compound 01F06, S1C(=NC=C1CN2N=NC(C=3C=4C(=O)NC=NC4NC3)=C2)C(F)(F)F] here?
The inhibition at 1 µM was 72%.

With O=c1[nH]cnc2[nH]cc(-c3cn([C@@H]4CCOC5(CCNCC5)C4)nn3)c12 [Compound 01B07, O=C1NC=NC=2NC=C(C=3N=NN(C3)[C@H]4CC5(OCC4)CC[NH2+]CC5)C12] as the compound, how does the inhibition at 1 µM read?
Its inhibition at 1 µM is 34%.

How did the inhibition at 1 µM turn out when CC(C)C(=O)NCCn1cc(-c2c[nH]c3nc[nH]c(=O)c23)nn1 [Compound 02D07, O=C1NC=NC=2NC=C(C=3N=NN(C3)CCNC(=O)C(C)C)C12] was run?
Its inhibition at 1 µM is 41%.

COc1ccccc1C(C)(C)n1cc(-c2c[nH]c3nc[nH]c(=O)c23)nn1 [Compound 02B08, O=C1NC=NC=2NC=C(C=3N=NN(C3)C(c4c(OC)cccc4)(C)C)C12] was tested. Which inhibition at 1 µM did it give?
The inhibition at 1 µM was 5.49%.

For O=c1[nH]cnc2[nH]cc(-c3cn(-c4ccc(S(F)(F)(F)(F)F)cc4)nn3)c12 [Compound 03A04, S(F)(F)(F)(F)(F)c1ccc(N2N=NC(C=3C=4C(=O)NC=NC4NC3)=C2)cc1], which inhibition at 1 µM is on record?
The inhibition at 1 µM was 16%.

With O=C(O)c1ccc(Cn2cc(-c3c[nH]c4nc[nH]c(=O)c34)nn2)cc1 [Compound 02C11, [O-]C(=O)c1ccc(cc1)CN2N=NC(C=3C=4C(=O)NC=NC4NC3)=C2] as the compound, how does the inhibition at 1 µM read?
The inhibition at 1 µM was 43%.

Which inhibition at 1 µM does the source give for O=c1[nH]cnc2[nH]cc(-c3cn(C[C@@H]4CCCCNC4)nn3)c12 [Compound 03H08, O=C1NC=NC=2NC=C(C=3N=NN(C3)C[C@H]4C[NH2+]CCCC4)C12] here?
Its inhibition at 1 µM is 81%.

With O=c1[nH]cnc2[nH]cc(-c3cn(C[C@H](O)c4ccccc4)nn3)c12 [Compound 04F03, O=C1NC=NC=2NC=C(C=3N=NN(C3)C[C@H](O)c4ccccc4)C12] as the compound, how does the inhibition at 1 µM read?
Its inhibition at 1 µM is 57%.

Which inhibition at 1 µM does the source give for O=c1[nH]cnc2[nH]cc(-c3cn(C[C@H](O)c4ccc(Cl)cc4)nn3)c12 [Compound 02C04, Clc1ccc(cc1)[C@@H](O)CN2N=NC(C=3C=4C(=O)NC=NC4NC3)=C2] here?
The inhibition at 1 µM was 85%.

O=c1[nH]cnc2[nH]cc(-c3cn(C[C@H]4COCCO4)nn3)c12 [Compound 03D10, O=C1NC=NC2=C1C(C3=CN(C[C@H]4COCCO4)N=N3)=CN2] was tested. Which inhibition at 1 µM did it give?
The inhibition at 1 µM was 57%.

Which inhibition at 1 µM does the source give for O=C1CC[C@@H](N2Cc3cc(-n4cc(-c5c[nH]c6nc[nH]c(=O)c56)nn4)ccc3C2=O)C(=O)N1 [Compound 01H08, O=C1N([C@H]2C(=O)NC(=O)CC2)Cc3c1ccc(N4N=NC(C=5C=6C(=O)NC=NC6NC5)=C4)c3] here?
The inhibition at 1 µM was 23%.

With O=C(c1ccco1)n1cc(-c2c[nH]c3nc[nH]c(=O)c23)nn1 [Compound 01G07, O=C(N1N=NC(C=2C=3C(=O)NC=NC3NC2)=C1)C=4OC=CC4] as the compound, how does the inhibition at 1 µM read?
Its inhibition at 1 µM is 28%.

Which inhibition at 1 µM does the source give for CO[C@H]1COC[C@@H]1n1cc(-c2c[nH]c3nc[nH]c(=O)c23)nn1 [Compound 04D03, O=C1NC=NC=2NC=C(C=3N=NN(C3)[C@@H]4[C@@H](OC)COC4)C12] here?
The inhibition at 1 µM was 37%.

How did the inhibition at 1 µM turn out when CC(F)(F)c1cccc(Cn2cc(-c3c[nH]c4nc[nH]c(=O)c34)nn2)n1 [Compound 01H01, FC(F)(c1nc(ccc1)CN2N=NC(C=3C=4C(=O)NC=NC4NC3)=C2)C] was run?
Its inhibition at 1 µM is 63%.

Which inhibition at 1 µM does the source give for O=c1[nH]cnc2[nH]cc(-c3cn(-c4ccc5[nH]cnc5c4)nn3)c12 [Compound 03G06, O=C1NC=NC=2NC=C(C=3N=NN(c4cc5N=CNc5cc4)C3)C12] here?
The inhibition at 1 µM was 27%.

How did the inhibition at 1 µM turn out when O=c1[nH]cnc2[nH]cc(-c3cn(CC(F)(F)c4ccccc4)nn3)c12 [Compound 02H05, FC(F)(c1ccccc1)CN2N=NC(C=3C=4C(=O)NC=NC4NC3)=C2] was run?
The inhibition at 1 µM was 46%.

For COc1ccc(-n2cc(-c3c[nH]c4nc[nH]c(=O)c34)nn2)cc1OC [Compound 01E06, O=C1NC=NC=2NC=C(C=3N=NN(c4cc(OC)c(OC)cc4)C3)C12], which inhibition at 1 µM is on record?
The inhibition at 1 µM was 19%.

For O=c1[nH]cnc2[nH]cc(-c3cn(C[C@H]4OCCOC45CCC5)nn3)c12 [Compound 01D02, O=C1NC=NC=2NC=C(C=3N=NN(C3)C[C@H]4OCCOC45CCC5)C12], which inhibition at 1 µM is on record?
The inhibition at 1 µM was 61%.

For O=c1[nH]cnc2[nH]cc(-c3cn(CC4CCC=CCC4)nn3)c12 [Compound 02G01, O=C1NC=NC=2NC=C(C=3N=NN(C3)CC4CCC=CCC4)C12], which inhibition at 1 µM is on record?
The inhibition at 1 µM was 71%.

How did the inhibition at 1 µM turn out when O=c1[nH]cnc2[nH]cc(-c3cn(C4CCNCC4)nn3)c12 [Compound 02H04, O=C1NC=NC=2NC=C(C=3N=NN(C3)C4CC[NH2+]CC4)C12] was run?
The inhibition at 1 µM was 28%.

Cc1nc2cc(-n3cc(-c4c[nH]c5nc[nH]c(=O)c45)nn3)ccc2[nH]1 [Compound 03G03, O=C1NC=NC=2NC=C(C=3N=NN(c4cc5N=C(Nc5cc4)C)C3)C12] was tested. Which inhibition at 1 µM did it give?
Its inhibition at 1 µM is 21%.

For O=c1[nH]cnc2[nH]cc(-c3cn(C[C@@H]4CC[C@H]4C(F)(F)F)nn3)c12 [Compound 01C12, FC(F)(F)[C@H]1[C@H](CN2N=NC(C=3C=4C(=O)NC=NC4NC3)=C2)CC1], which inhibition at 1 µM is on record?
Its inhibition at 1 µM is 47%.

With O=C1CCC[C@@H](Cn2cc(-c3c[nH]c4nc[nH]c(=O)c34)nn2)N1 [Compound 04D01, O=C1NC=NC=2NC=C(C=3N=NN(C3)C[C@H]4NC(=O)CCC4)C12] as the compound, how does the inhibition at 1 µM read?
Its inhibition at 1 µM is 75%.

With O=c1[nH]cnc2[nH]cc(-c3cn([C@H]4CCn5cccc5C4)nn3)c12 [Compound 02H10, O=C1NC=NC=2NC=C(C=3N=NN(C3)[C@@H]4CC=5N(C=CC5)CC4)C12] as the compound, how does the inhibition at 1 µM read?
The inhibition at 1 µM was 24%.

With COC(=O)c1ccc(-n2cc(-c3c[nH]c4nc[nH]c(=O)c34)nn2)cc1 [Compound 03D08, O=C(OC)c1ccc(N2N=NC(C=3C=4C(=O)NC=NC4NC3)=C2)cc1] as the compound, how does the inhibition at 1 µM read?
Its inhibition at 1 µM is 11%.

For CC(C)(C)n1cc(-c2c[nH]c3nc[nH]c(=O)c23)nn1 [Compound 03H11, O=C1NC=NC=2NC=C(C=3N=NN(C3)C(C)(C)C)C12], which inhibition at 1 µM is on record?
Its inhibition at 1 µM is 11%.

With COc1ccc(C(F)(F)F)cc1-n1cc(-c2c[nH]c3nc[nH]c(=O)c23)nn1 [Compound 02A04, FC(F)(F)c1cc(N2N=NC(C=3C=4C(=O)NC=NC4NC3)=C2)c(OC)cc1] as the compound, how does the inhibition at 1 µM read?
The inhibition at 1 µM was 20%.

O=c1[nH]cnc2[nH]cc(-c3cn(-c4ccc5c(c4)CNCC5)nn3)c12 [Compound 01G04, O=C1NC=NC=2NC=C(C=3N=NN(c4cc5c(cc4)CC[NH2+]C5)C3)C12] was tested. Which inhibition at 1 µM did it give?
The inhibition at 1 µM was 33%.

For O=c1[nH]cnc2[nH]cc(-c3cn(S(=O)(=O)c4ccc5c(c4)CCO5)nn3)c12 [Compound 02A06, O=S(C1=CC2=C(OCC2)C=C1)(N3N=NC(C4=CNC(N=CN5)=C4C5=O)=C3)=O], which inhibition at 1 µM is on record?
The inhibition at 1 µM was -1.83%.
